Columns and labels:
[1] = test system: MDA-MB-231, MDA-MB-468, and LM2 cells; experiment: Colony formation of triple-negative breast cancer lines, crystal violet staining; assay type: cell-based, human
Description: FIG. 6. Targeting AdipoR1 signaling in human TNBC. A) MDA-MB-231, MDA-MB-468 and MCF7 cells were infected with lentiviruses inducibly expressing either GFP or GFP-ADIPOR1. After neomycin selection, the stably transfected cells were treated with DMSO or doxycycline (DOX). The induced GFP or GFP-AdipoR1 was determined by western blot in three cell lines, n=3. B) The proliferation ability of GFP or GFP-ADIPOR1 inducible cell lines were determined by cell counting, n=3, Student's t test was used for statistical analysis. **P<0.01; *P<0.05. Error bars represent sd. C) The GFP or GFP-ADIPOR1 inducible cell lines were seeded in 6-well plates at the concentration of 4×10^4 living cells per well. The cells were then treated with DMSO or doxycycline. The cell survival was shown six days after doxycycline treatment by crystal violet staining. D) Quantification of crystal violet staining was determined as described in materials section. n=4, Student's t test was used for statistical analysis. **P<0.01; *P<0.05. Error bars represent sd. […] F) Quantification of crystal violet staining was determined as described in materials section. n=4, Student's t test was used for statistical analysis. **P<0.01; *P<0.05. […] They were treated with either PBS or AdipoRon (50 mg/kg) for 10 times, and the tumor size (G) and animal survival (H) was monitored. Tumor growth was measured two weeks after inoculation (n=7). […]

[2] = test system: SET1B; experiment: SET1B protein level by western blot after AdipoRON treatment; assay type: cell-based, human; settings: MDA-MB-231 cells, various concentrations for 24 hours
Description: FIG. 13. Depletion of AdipoR1 by CRISPR-CAS9 partially rescued cell death induced by SET1B depletion. A) Design of CRIPSR-Cas9 targeting ADIPOR1 gene locus. B) PCR was performed for genotyping of AdipoR1 wildtype and deleted cells. C) Total RNA was extracted from AdipoR1-WT and AdipoR1-KO cells and subjected to RNA-seq, three replicates. Representative tracks of AdipoR1 gene are shown. D) SET1B was further knocked down in ADIPOR1-WT and ADIPOR1-KO cells, respectively. After puromycin selection for 48 hours, 1×10^5 cells were seeded in 6-well plate, the cell viability of SET1B knocked down cells was determined by cell counting. E) The cells from panel C were seeded in 6-well plate (1×10^4) and grown for one week before crystal violet staining. F) Quantification of crystal violet staining was determined as described in materials section. n=4, Student's t test was used for statistical analysis. **P<0.01; *P<0.05. Error bars represent sd. […] H) Cell morphology of GFP or GFP-AdipoR1 inducible cell lines after DMSO or Dox treatment, n=3. I) MCF7 cells were seeded in 6-well plates at the concentration of 500 cells per well. The cells were treated with either DMSO or AdipoRON (10 μM) for three weeks, and the colonies were stained with crystal violet. J) MDA-MB-231 cells were treated with various concentrations of AdipoRON for 24 hours. The protein level of SET1B was determined by western blot. […]

[3] = test system: LM2 cells; experiment: LM2 cell fat pad xenograft in nude mice, treatment assay; assay type: in vivo
Description: FIG. 6. Targeting AdipoR1 signaling in human TNBC. A) MDA-MB-231, MDA-MB-468 and MCF7 cells were infected with lentiviruses inducibly expressing either GFP or GFP-ADIPOR1. After neomycin selection, the stably transfected cells were treated with DMSO or doxycycline (DOX). The induced GFP or GFP-AdipoR1 was determined by western blot in three cell lines, n=3. B) The proliferation ability of GFP or GFP-ADIPOR1 inducible cell lines were determined by cell counting, n=3, Student's t test was used for statistical analysis. **P<0.01; *P<0.05. Error bars represent sd. C) The GFP or GFP-ADIPOR1 inducible cell lines were seeded in 6-well plates at the concentration of 4×10^4 living cells per well. The cells were then treated with DMSO or doxycycline. The cell survival was shown six days after doxycycline treatment by crystal violet staining. D) Quantification of crystal violet staining was determined as described in materials section. n=4, Student's t test was used for statistical analysis. **P<0.01; *P<0.05. Error bars represent sd. E) MDA-MB-231, MDA-MB-468, and LM2 cells were seeded in 6-well plates at the concentration of 200 cells per well. […] F) Quantification of crystal violet staining was determined as described in materials section. n=4, Student's t test was used for statistical analysis. **P<0.01; *P<0.05. […] They were treated with either PBS or AdipoRon (50 mg/kg) for 10 times, and the tumor size (G) and animal survival (H) was monitored. Tumor growth was measured two weeks after inoculation (n=7). […]
FIG. 14. […] They were treated with either PBS or AdipoRon (50 mg/kg and 100 mg/kg, respectively) for 10 times, and the tumor size was monitored. Tumor growth was measured two weeks after inoculation (n=8). […]
Animal experiments. […] Tumor growth was monitored every other day two weeks after inoculation. […] They were treated with either PBS or AdipoRon (50 mg/kg) for 10 times, and the tumor size (G) and animal survival (H) was monitored. Tumor growth was measured two weeks after inoculation.

[4] = mice treated with 50 mg/kg AdipoRon; cited from earlier work
[5] = cited from earlier work

SMILES: O=C(COc1ccc(C(=O)c2ccccc2)cc1)NC1CCN(Cc2ccccc2)CC1 [AdipoRon]
- anti-tumor effect in vitro ([1]; 10 μM): dramatic anti-tumor effect
- colony formation ability ([1]; AdipoRON 10 μM for three weeks, multiple triple-negative breast cancer lines, 200 cells per well): significantly inhibited
- SET1B protein level [2]: does not affect
- drug effect (tumor size) by intraperitoneal injection ([3]; intraperitoneal injection, 50 mg/kg and 100 mg/kg, 10 times): consistent result
- tumor size / tumor growth ([3]; oral 50 mg/kg, started 12 days after transplantation): significantly reduced
- animal survival / lifespan ([3]; oral 50 mg/kg, started 12 days after transplantation, 50 mg/kg): significantly increased
- plasma concentration [4]: 11.6 µM
- toxicity in vivo [5]: low toxicity

Reference: patent US11059878B2, “Therapeutic targeting of SET1B/compass pathway for treating cancers” (Northwestern University, priority 2016, dated 2021)
